Experimental data as given in patent US20240368204A1, “SMALL MOLECULAR CD73 ANTAGONIST AND USE THEREOF” (XIZANG HAISCO PHARMACEUTICAL CO., LTD., priority 2021, published 2024).

Biological target: Human recombinant protein CD73 (Homo sapiens (Human), UniProt P21589)
Assay: CD73 enzyme activity in vitro (Malachite Green, AMP substrate)
Assay type: biochemical
Conditions: recombinant CD73, 100 μM AMP substrate solution, absorbance at 620 nm
Experimental: 1. Test Method for CD73 Enzyme Activity In Vitro
Human recombinant protein CD73 (Acro, Cat. No. CD3-H52H7) was prepared into a 0.04 ng/μL protein solution, and substrate AMP (Sigma, Cat. No. A1752-1G) was prepared into a 100 μM substrate solution. 5 μL of compounds at different concentrations were added into a 384-well white transparent bottom plate, 5 μL of 0.04 ng/μL recombinant CD73 enzyme solution was added, and the mixture was incubated at room temperature for 15 minutes. 10 μL of 100 μM substrate solution was added, the mixture was incubated at 37° C. for 40 minutes, 5 μL of Malachite Green Reagent A (R&D, Cat. No. DY996) was added, the mixture was incubated at room temperature for 10 minutes, and finally, 5 μL of Malachite Green Reagent B was added, the mixture was incubated at room temperature for 20 minutes, and a microplate reader PHERAstar FSX instrument was used to detect the absorbance at 620 nm. IC50 values were calculated using the origin9.2 software. The calculation formula of the inhibition rate was shown in Formula 1, wherein ODsample is the readout for the compound, ODnegative is the readout for the negative control without substrate, and ODpositive is the readout for the vehicle control.

Human recombinant protein CD73, sequence (P21589 27-574): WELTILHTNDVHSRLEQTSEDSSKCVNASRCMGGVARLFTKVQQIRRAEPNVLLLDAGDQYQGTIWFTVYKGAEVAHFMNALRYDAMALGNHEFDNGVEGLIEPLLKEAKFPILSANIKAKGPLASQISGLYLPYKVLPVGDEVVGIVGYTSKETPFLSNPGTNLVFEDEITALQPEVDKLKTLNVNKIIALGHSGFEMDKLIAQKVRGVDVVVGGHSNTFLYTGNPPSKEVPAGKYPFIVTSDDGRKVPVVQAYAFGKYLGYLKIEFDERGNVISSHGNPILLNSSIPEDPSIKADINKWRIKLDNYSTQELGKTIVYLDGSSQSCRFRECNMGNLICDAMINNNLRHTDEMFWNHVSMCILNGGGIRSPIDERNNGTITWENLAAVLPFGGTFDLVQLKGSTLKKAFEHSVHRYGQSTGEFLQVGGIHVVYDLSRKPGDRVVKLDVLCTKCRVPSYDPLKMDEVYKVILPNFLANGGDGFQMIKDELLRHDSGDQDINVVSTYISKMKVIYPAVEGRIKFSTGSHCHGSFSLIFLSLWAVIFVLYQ

SMILES	IC50 [nM]
C[C@H](Nc1cc(Cl)nc2c1cnn2[C@@H]1O[C@H](COP(=O)(O)CP(=O)(O)O)[C@](O)(CO)[C@H]1O)c1ccccc1F [Compound 12, (((((2R,3S,4R,5R)-5-(6-chloro-4-(((S)-1-(2-fluorophenyl)ethyl)amino)-1H-pyrazolo[3,4-b]pyridin-1-yl)-3,4-dihydroxy-3-(hydroxymethyl)tetrahydrofuran-2-yl)methoxy)(hydroxy)phosphoryl)methyl)phosphonic acid]	0.4
CONc1nc(Cl)nc2c1cnn2[C@@H]1O[C@H](COP(=O)(O)CP(=O)(O)O)[C@@H](O)[C@H]1O [Compound 18, (((((2R,3S,4R,5R)-5-(6-chloro-4-(methoxyamino)-1H-pyrazolo[3,4-d]pyrimidin-1-yl)-3,4-dihydroxytetrahydrofuran-2-yl)methoxy)(hydroxy)phosphoryl)methyl)phosphonic acid]	1.8
CONc1cc(Cl)nc2c1cnn2[C@@H]1O[C@H](COP(=O)(O)CP(=O)(O)O)[C@@H](O)[C@H]1O [Compound 24, (((((2R,3S,4R,5R)-5-(6-chloro-4-(methoxyamino)-1H-pyrazolo[3,4-b]pyridin-1-yl)-3,4-dihydroxytetrahydrofuran-2-yl)methoxy)(hydroxy)phosphoryl)methyl) phosphonic acid]	5.3
O=P(O)(O)CP(=O)(O)OC[C@H]1O[C@@H](n2ncc3c(NOC4CCCC4)nc(Cl)nc32)[C@H](O)[C@@H]1O [Compound 25, (((((2R,3S,4R,5R)-5-(6-chloro-4-((cyclopentyloxy)amino)-1H-pyrazolo[3,4-d]pyrimidin-1-yl)-3,4-dihydroxytetrahydrofuran-2-yl)methoxy)(hydroxy)phosphoryl)methyl)phosphonic acid]	0.4
CC(C)ONc1cc(Cl)nc2c1cnn2[C@@H]1O[C@H](COP(=O)(O)CP(=O)(O)O)[C@@H](O)[C@H]1O [Compound 26, (((((2R,3 S,4R,5R)-5-(6-chloro-4-(isopropoxyamino)-1H-pyrazolo[3,4-b]pyridin-1-yl)-3,4-dihydroxytetrahydrofuran-2-yl)methoxy)(hydroxy)phosphoryl)methyl)phosphonic acid]	2.9
CC(C)ONc1nc(Cl)nc2c1cnn2[C@@H]1O[C@H](COP(=O)(O)CP(=O)(O)O)[C@@H](O)[C@H]1O [Compound 27, (((((2R,3S,4R,5R)-5-(6-chloro-4-(isopropoxyamino)-1H-pyrazolo[3,4-d]pyrimidin-1-yl)-3,4-dihydroxytetrahydrofuran-2-yl)methoxy)(hydroxy)phosphoryl)methyl)phosphonic acid]	1.7
O=P(O)(O)CP(=O)(O)OC[C@H]1O[C@@H](n2ncc3c(N4C[C@H]5CCC[C@H]5C4)nc(Cl)nc32)[C@H](O)[C@@]1(O)CO [Compound 28, (((((2R,3S,4R,5R)-5-(6-chloro-4-((3aR,6aS)-hexahydrocyclopenta[c]pyrrol-2(1H)-yl)-1H-pyrazolo[3,4-d]pyrimidin-1-yl)-3,4-dihydroxy-3-(hydroxymethyl)tetrahydrofuran-2-yl)methoxy)(hydroxy)phosphoryl)methyl)phosphonic acid]	0.7
O=P(O)(O)CP(=O)(O)OC[C@H]1O[C@@H](n2ncc3c(N4C[C@H]5CCC[C@H]5C4)cc(Cl)nc32)[C@H](O)[C@@]1(O)CO [Compound 29, (((((2R,3S,4R,5R)-5-(6-chloro-4-((3aR,6aS)-hexahydrocyclopenta[c]pyrrol-2(1H)-yl)-1H-pyrazolo[3,4-b]pyridin-1-yl)-3,4-dihydroxy-3-(hydroxymethyl)tetrahydrofuran-2-yl)methoxy)(hydroxy)phosphoryl)methyl) phosphonic acid]	2.6
O=P(O)(O)CP(=O)(O)OC[C@H]1O[C@@H](n2ncc3c(NOCc4ccccc4)nc(Cl)nc32)[C@H](O)[C@@H]1O [Compound 30, (((((2R,3S,4R,5R)-5-(4-((benzyloxy)amino)-6-chloro-1H-pyrazolo[3,4-d]pyrimidin-1-yl)-3,4-dihydroxytetrahydrofuran-2-yl)methoxy)(hydroxy)phosphoryl)methyl)phosphonic acid]	0.2
O=P(O)(O)CP(=O)(O)OC[C@H]1O[C@H](n2ncc3c(N4C[C@H]5CCC[C@H]5C4)nc(Cl)nc32)[C@H](O)[C@@]1(O)CO [Compound 31, (((((2R,3S,4R,5S)-5-(6-chloro-4-((3aR,6aS)-hexahydrocyclopenta[c]pyrrol-2(1H)-yl)-1H-pyrazolo[3,4-d]pyrimidin-1-yl)-3,4-dihydroxy-3-(hydroxymethyl)tetrahydrofuran-2-yl)methoxy)(hydroxy)phosphoryl)methyl)phosphonic acid]	0.7
O=P(O)(O)CP(=O)(O)OC[C@H]1O[C@@H](n2ncc3c(N4C[C@H]5CCC[C@H]5C4)cc(Cl)nc32)[C@H](O)[C@@]1(O)C(F)F [Compound 32, (((((2R,3S,4R,5R)-5-(6-chloro-4-((3aR,6aS)-hexahydrocyclopenta[c]pyrrol-2(1H)-yl)-1H-pyrazolo[3,4-b]pyridin-1-yl)-3-(difluoromethyl)-3,4-dihydroxytetrahydrofuran-2-yl)methoxy)(hydroxy)phosphoryl)methyl)phosphonic acid]	0.9
O=P(O)(O)CP(=O)(O)OC[C@H]1O[C@@H](n2ncc3c(N4C[C@H]5CCC[C@H]5C4)nc(Cl)nc32)[C@H](O)[C@@]1(O)C(F)F [Compound 33, (((((2R,3S,4R,5R)-5-(6-chloro-4-((3aR,6aS)-hexahydrocyclopenta[c]pyrrol-2(1H)-yl)-1H-pyrazolo[3,4-d]pyrimidin-1-yl)-3-(difluoromethyl)-3,4-dihydroxytetrahydrofuran-2-yl)methoxy)(hydroxy)phosphoryl)methyl)phosphonic acid]	1.2
C[C@@]1(O)[C@@H](COP(=O)(O)CP(=O)(O)O)O[C@@H](n2ncc3c(N4C[C@H]5CCC[C@H]5C4)nc(Cl)nc32)[C@@H]1O [Compound 38, (((((2R,3S,4R,5R)-5-(6-chloro-4-((3aR,6aS)-hexahydrocyclopenta[c]pyrrol-2(1H)-yl)-1H-pyrazolo[3,4-d]pyrimidin-1-yl)-3,4-dihydroxy-3-methyltetrahydrofuran-2-yl)methoxy)(hydroxy)phosphoryl)methyl)phosphonic acid]	0.3
C#C[C@@]1(O)[C@@H](COP(=O)(O)CP(=O)(O)O)O[C@@H](n2ncc3c(N4C[C@H]5CCC[C@H]5C4)nc(Cl)nc32)[C@@H]1O [Compound 40, (((((2R,3S,4R,5R)-5-(6-chloro-4-((3aR,6aS)-hexahydrocyclopenta[c]pyrrol-2(1H)-yl)-1H-pyrazolo[3,4-d]pyrimidin-1-yl)-3-ethynyl-3,4-dihydroxytetrahydrofuran-2-yl)methoxy)(hydroxy)phosphoryl)methyl)phosphonic acid]	0.06

Test system: B16F10 xenograft tumor
Assay: B16F10 xenograft tumor model in vivo
Design: species or system mouse
Conditions: 30 mg/kg, single agent
Experimental: B16F10 Xenograft Tumor Model In Vivo
B16F10 cells were purchased from ATCC, the cell medium was DMEM+10% FBS+1% double antibody, and the cells were cultured in an incubator at 37° C. under 5% CO2. After the cells had grown to a number sufficient for inoculation, the cells were harvested. The cell-containing culture solution was transferred to a 50 mL sterile centrifuge tube, and centrifuged at 1500 rpm for 3 minutes. The centrifuge tube was taken out after centrifugation, and the supernatant was discarded. The cells were resuspended in a pre-cooled PBS and centrifuged at 1500 rpm for 3 minutes, and after centrifugation, the supernatant was discarded; the process was repeated twice. Finally, the cells were resuspended in a pre-cooled PBS. After counting, the cells were diluted to 1×10^6 cells/mL with a pre-cooled PBS. […] The second day of inoculation was recorded as Day 0, and compound 28 (the vehicle was phosphate buffer saline) was given by intragastric administration every day after randomization, and animals in both the group with the anti-PD-1 antibody (anti-PD-1; BioXcell, Cat. CD279) and the group with combined drugs were injected intraperitoneally with the anti-PD-1 antibody (twice a week). The long and short diameters of the tumors were measured with an electronic vernier caliper, and the body weight of the animals was recorded. […]

SMILES	TGI % (day 15) [%]
C[C@H](Nc1cc(Cl)nc2c1cnn2[C@@H]1O[C@H](COP(=O)(O)CP(=O)(O)O)[C@@H](O)[C@H]1O)c1ccccc1F [AB680, reference compound]	57.96

Same assay, conditions: 100 mg/kg, intragastric administration every day, single agent

SMILES	TGI % (day 15) [%]
O=P(O)(O)CP(=O)(O)OC[C@H]1O[C@@H](n2ncc3c(N4C[C@H]5CCC[C@H]5C4)nc(Cl)nc32)[C@H](O)[C@@]1(O)CO [Compound 28, (((((2R,3S,4R,5R)-5-(6-chloro-4-((3aR,6aS)-hexahydrocyclopenta[c]pyrrol-2(1H)-yl)-1H-pyrazolo[3,4-d]pyrimidin-1-yl)-3,4-dihydroxy-3-(hydroxymethyl)tetrahydrofuran-2-yl)methoxy)(hydroxy)phosphoryl)methyl)phosphonic acid]	50.12
